Test: Membrane integrity test in lipid monolayer (LB) PAMPA system
Type: in vitro ADME
Description: FIG. 3-4 illustrates graphs 300-400 illustrating the membrane integrity test, in accordance with the disclosed embodiments. The membrane integrity test can be performed according to the standard protocol. An 80 μl aqueous solution containing Lucifer yellow (LY) and Brilliant Cresyl Blue (BCB) in the ratio 1:9 is added into the donor well. The PAMPA system can be assembled and incubated for 5 hours at 25° C. The acceptor plate and donor well are separated and concentration of LY and BCB was analyzed by measuring; Fluorescence: Excitation wavelength @428 mn; Emission wavelength @525 nm; Absorbance; at 610 nm for BCB.
FIG. 3 illustrates the graph 300 showing the permeation of BCB as 0.045; Absorbance units after 5 hours of incubation indicating the presence of integral membrane. Similarly, the graph 400 illustrates the rejection of Lucifer Yellow after 5 hours of incubation indicating the presence of integral membrane. The rejection of Lucifer yellow indicates the presence of an integral membrane.

Row | permeation/rejection of Lucifer Yellow (fluorescence, excitation 428 / emission 525 nm) (LY:BCB 1:9 aqueous solution, 80 μl in donor well, after 5 hours of incubation at 25° C.) | permeation of BCB (absorbance at 610 nm, acceptor) (PAMPA) [Absorbance units] | Substance
1 | rejection |  | Lucifer yellow
2 |  | 0.045 | Brilliant Cresyl Blue [BCB]

Reference: US20170138969A1, “System And Method For Measuring Permeability Of Drugs/Toxic/Chemical Compounds” (Indian Institute Of Technology Madras, priority 2014, published 2017)
